Measurements published in ChEMBL document CHEMBL1201862, “PubChem BioAssay data set” (2004).
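Tested at 5 concentrations; 48 h exposure; 96-well plates; endpoints linearly interpolated, else capped at highest concentration. GI50: concentration for 50% inhibition of growth.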 The source made the active and inactive calls. Cut-off read from the data, not from the text of the source: active = GI50 up to about 1.1 µM and inactive = higher.

What was measured:
Assay in all cases: inhibition of tumour cell growth, NCI panel, 48 h
[1] = tested on: HCT-116
[2] = tested on: NCI-H226
[3] = tested on: HOP-62
[4] = tested on: SF-539
[5] = tested on: SN12C
[6] = tested on: MDA-MB-435
[7] = tested on: RXF 393
[8] = tested on: MDA-N
[9] = tested on: DU-145
[10] = tested on: K562
[11] = tested on: LOX IMVI
[12] = tested on: T47D
[13] = tested on: NCI-H23
[14] = tested on: OVCAR-5
[15] = tested on: HCT-15
[16] = tested on: IGROV-1
[17] = tested on: A498
[18] = tested on: UO-31
[19] = tested on: SF-268
[20] = tested on: Malme-3M
[21] = tested on: SNB-19
[22] = tested on: SK-MEL-28
[23] = tested on: OVCAR-3
[24] = tested on: SF-295
[25] = tested on: NCI-H460
[26] = tested on: CAKI-1
[27] = tested on: UACC-257
[28] = tested on: HOP-92
[29] = tested on: HT-29
[30] = tested on: MCF7
[31] = tested on: PC-3
[32] = tested on: 786-0
[33] = tested on: SR
[34] = tested on: SK-MEL-5
[35] = tested on: BT-549
[36] = tested on: SNB-75
[37] = tested on: Hs-578T
[38] = tested on: OVCAR-4
[39] = tested on: U-251
[40] = tested on: TK-10
[41] = tested on: OVCAR-8
[42] = tested on: M14
[43] = tested on: CCRF-CEM
[44] = tested on: NCI-H522
[45] = tested on: RPMI-8226
[46] = tested on: SK-OV-3
[47] = tested on: MOLT-4
[48] = tested on: COLO 205
[49] = tested on: ACHN
[50] = tested on: EKVX
[51] = tested on: SW-620
[52] = tested on: A549
[53] = tested on: KM12
[54] = tested on: MDA-MB-231
[55] = tested on: HL-60
[56] = tested on: HCC 2998
[57] = tested on: NCI/ADR-RES
[58] = tested on: UACC-62

Q: How did the GI50 [1] turn out when `COc1cc([C@@H]2C3C(=O)c4ccccc4C3[C@@H](c3cc(OC)c(OC)c(OC)c3)C23Cc2ccccc2C3=O)cc(OC)c1OC` (stereo partly drawn) was run?
A: Its GI50 is > 100 µM (inactive).

Q: What about the GI50 [2] of the same molecule?
A: Its GI50 is > 100 µM (inactive).

Q: And the GI50 [3]?
A: Its GI50 is > 100 µM (inactive).

Q: What about the GI50 [4] of the same molecule?
A: The GI50 was > 100 µM (inactive).

Q: What about the GI50 [5] of the same molecule?
A: The GI50 was > 100 µM (inactive).

Q: What about the GI50 [6] of the same molecule?
A: The GI50 was > 100 µM (inactive).

Q: And the GI50 [7]?
A: The GI50 was > 100 µM (inactive).

Q: And the GI50 [8]?
A: The GI50 was > 100 µM (inactive).

Q: And the GI50 [9]?
A: The GI50 was > 100 µM (inactive).

Q: And the GI50 [10]?
A: Its GI50 is > 100 µM (inactive).

Q: What about the GI50 [11] of the same molecule?
A: Its GI50 is > 100 µM (inactive).

Q: What about the GI50 [12] of the same molecule?
A: The GI50 was > 100 µM (inactive).

Q: And the GI50 [13]?
A: The GI50 was > 100 µM (inactive).

Q: What about the GI50 [14] of the same molecule?
A: The GI50 was > 100 µM (inactive).

Q: And the GI50 [15]?
A: Its GI50 is greater than 100 µM.

Q: And the GI50 [16]?
A: The GI50 was 24.3 µM (inactive).

Q: What about the GI50 [17] of the same molecule?
A: Its GI50 is > 100 µM (inactive).

Q: And the GI50 [18]?
A: The GI50 was > 100 µM (inactive).

Q: What about the GI50 [19] of the same molecule?
A: The GI50 was > 100 µM (inactive).

Q: What about the GI50 [20] of the same molecule?
A: Its GI50 is > 100 µM (inactive).

Q: And the GI50 [21]?
A: Its GI50 is > 100 µM (inactive).

Q: And the GI50 [22]?
A: Its GI50 is > 100 µM (inactive).

Q: What about the GI50 [23] of the same molecule?
A: Its GI50 is > 100 µM (inactive).

Q: And the GI50 [24]?
A: The GI50 was > 100 µM (inactive).

Q: What about the GI50 [25] of the same molecule?
A: The GI50 was > 100 µM (inactive).

Q: And the GI50 [26]?
A: Its GI50 is 2.75 µM (inactive).

Q: What about the GI50 [27] of the same molecule?
A: Its GI50 is > 100 µM (inactive).

Q: What about the GI50 [28] of the same molecule?
A: The GI50 was 1.87 µM (inactive).

Q: And the GI50 [29]?
A: The GI50 was > 100 µM (inactive).

Q: And the GI50 [30]?
A: The GI50 was 15.4 µM (inactive).

Q: And the GI50 [31]?
A: The GI50 was > 100 µM (inactive).

Q: What about the GI50 [32] of the same molecule?
A: Its GI50 is > 100 µM (inactive).

Q: What about the GI50 [33] of the same molecule?
A: The GI50 was > 100 µM (inactive).

Q: And the GI50 [34]?
A: Its GI50 is > 100 µM (inactive).

Q: What about the GI50 [35] of the same molecule?
A: Its GI50 is > 100 µM (inactive).

Q: What about the GI50 [36] of the same molecule?
A: Its GI50 is 21.8 µM (inactive).

Q: What about the GI50 [37] of the same molecule?
A: The GI50 was > 100 µM (inactive).

Q: And the GI50 [38]?
A: The GI50 was > 100 µM (inactive).

Q: And the GI50 [39]?
A: The GI50 was > 100 µM (inactive).

Q: What about the GI50 [40] of the same molecule?
A: Its GI50 is > 100 µM (inactive).

Q: And the GI50 [41]?
A: The GI50 was > 100 µM (inactive).

Q: And the GI50 [42]?
A: Its GI50 is > 100 µM (inactive).

Q: And the GI50 [43]?
A: Its GI50 is > 100 µM (inactive).

Q: And the GI50 [44]?
A: The GI50 was > 100 µM (inactive).

Q: And the GI50 [45]?
A: The GI50 was 37.8 µM (inactive).

Q: And the GI50 [46]?
A: Its GI50 is > 100 µM (inactive).

Q: And the GI50 [47]?
A: Its GI50 is > 100 µM (inactive).

Q: And the GI50 [48]?
A: The GI50 was > 100 µM (inactive).

Q: What about the GI50 [49] of the same molecule?
A: Its GI50 is > 100 µM (inactive).

Q: And the GI50 [50]?
A: The GI50 was > 100 µM (inactive).

Q: And the GI50 [51]?
A: The GI50 was > 100 µM (inactive).

Q: What about the GI50 [52] of the same molecule?
A: The GI50 was > 100 µM (inactive).

Q: And the GI50 [53]?
A: The GI50 was > 100 µM (inactive).

Q: And the GI50 [54]?
A: Its GI50 is > 100 µM (inactive).

Q: And the GI50 [55]?
A: The GI50 was > 100 µM (inactive).

Q: And the GI50 [56]?
A: Its GI50 is > 100 µM (inactive).

Q: And the GI50 [57]?
A: Its GI50 is > 100 µM (inactive).

Q: What does the source list for `CC(C)(C)OC(=O)C1CCC/C1=N/Nc1ccc([N+](=O)[O-])cc1[N+](=O)[O-]` (stereo not drawn)?
A: GI50 [1]: 21.4 µM (inactive); GI50 [2]: 21.3 µM (inactive); GI50 [3]: 45.6 µM (inactive); GI50 [5]: 40.7 µM (inactive); GI50 [6]: 21.2 µM (inactive); GI50 [7]: 33.2 µM (inactive); GI50 [8]: 30.8 µM (inactive); GI50 [9]: 47.2 µM (inactive); GI50 [10]: 15.7 µM (inactive); GI50 [11]: 17.7 µM (inactive); GI50 [12]: 16.3 µM (inactive); GI50 [13]: 18 µM (inactive); GI50 [14]: 43.3 µM (inactive); GI50 [15]: 39.4 µM; GI50 [16]: 25.5 µM (inactive); GI50 [17]: 13 µM (inactive); GI50 [18]: 17.6 µM (inactive); GI50 [19]: 41.8 µM (inactive); GI50 [20]: 65.5 µM (inactive); GI50 [21]: 41.5 µM (inactive); GI50 [22]: 54.7 µM (inactive); GI50 [23]: 46.6 µM (inactive); GI50 [24]: 25 µM (inactive); GI50 [25]: 37.9 µM (inactive); GI50 [26]: 39.4 µM (inactive); GI50 [58]: 26.9 µM (inactive); GI50 [28]: 47.1 µM (inactive); GI50 [29]: 36.5 µM (inactive); GI50 [30]: 30 µM (inactive); GI50 [31]: 10.3 µM (inactive); GI50 [32]: 23 µM (inactive); GI50 [33]: 26.1 µM (inactive); GI50 [34]: 13.9 µM (inactive); GI50 [35]: 24.9 µM (inactive); GI50 [36]: 19.1 µM (inactive); GI50 [37]: 48.2 µM (inactive); GI50 [38]: 74.5 µM (inactive); GI50 [39]: 22 µM (inactive); GI50 [40]: 43.7 µM (inactive); GI50 [41]: 27.5 µM (inactive); GI50 [42]: 39.6 µM (inactive); GI50 [43]: 19.7 µM (inactive); GI50 [44]: 18.8 µM (inactive); GI50 [45]: 32 µM (inactive); GI50 [46]: 43 µM (inactive); GI50 [47]: 17.7 µM (inactive); GI50 [48]: 27 µM (inactive); GI50 [49]: 45.3 µM (inactive); GI50 [50]: 24.7 µM (inactive); GI50 [51]: 27.9 µM (inactive); GI50 [52]: 31.9 µM (inactive); GI50 [53]: 54.7 µM (inactive); GI50 [54]: 20 µM (inactive); GI50 [55]: 44.3 µM (inactive); GI50 [56]: 42.9 µM (inactive); GI50 [57]: 26.1 µM (inactive)
